Reference: patent US20050071891A1, “Repressible sterility of animals” (priority 1999, published 2005)

Key:
Pacific oyster larvae = assay: Electroporation of oyster sperm, GUS as reporter gene; type: in vivo, Crassostrea gigas
Experimental: Mature oysters (Crassostrea gigas) were obtained from local hatcheries in Tasmania and New South Wales, and held in artificial seawater at 10° C. until required. Eggs were collected from 2-3 females by stripping the gonads and were pooled, rinsed on a 20 μm mesh, and left to condition in artificial sea water for 2 h. Sperm were stripped from male gonads, diluted to approximately 10,000 gametes/μl, and used immediately for electroporation-mediated nucleic acid delivery. Plasmid DNA (50 μg/ml) or double-stranded RNA (dsRNA; 1 μg/ml) was delivered into 1×10^6 sperm using a BioRad Gene Pulser II electroporator in 0.2 cm gap electroporation cuvettes. Sperm were subjected to a single electroporation pulse (50 V, 100% modulation, 10 kHz, 12.5 msec) and immediately mixed with 5000 oocytes. Fertilized embryos and developing larvae were reared at 20° C. in artificial seawater containing 0.1 μg/ml chloramphenicol. Surviving larvae were counted after 24 h development. For experiments in which the Drosophila melanogaster heat shock promoter was used to drive expression of the delivered genes, a 1 h heat shock at 37° C. was provided either at 2 h or 18 h post fertilization, and development was then permitted to proceed at 20° C.
Transfection efficiencies were also assessed in a second set of experiments that examined delivery of pHSP-GUS construct (SEQ ID NO:21). The pHSP-GUS construct was made in a two step fashion. First, the D. melanogaster heat shock promoter and terminator were isolated from the pCaSpeR-hs plasmid (Thummel and Pirrotta, 1992, Drosophila Information Service 71: 150) by PCR using the two primers: […]
GUS activity in these experiments was measured using a fluorometric assay as previously described (Jefferson, R A 1987).

HoxCG1 gene = assay: Arrested development of oyster embryos transfected with hairpin dsRNA plasmid; type: in vivo
Experimental: In vivo expression of dsRNA was achieved by transfecting oyster larvae with the pBiT(dHSP)-RFP-oHoxDS/BH plasmid (FIG. 21; SEQ ID NO:20), which contains the heat inducible promoter (PHSP70) from D. melanogaster driving the expression of a hairpin RNA molecule specific to the HoxCG1 gene. The construct was prepared as follows. SEQ ID NO:23 (AGAL ref #: NM99/09101) was used as a template to generate a PCR fragment using the following primers: […]
Oyster sperm were transfected with the DNA using electroporation, and oocytes were fertilized and larvae allowed to develop for 96 hours. Embryos were heat shocked for one hour at 3 hours post fertilization to induce transcription of the dsRNAs.

HoxCG1 = assay: Reversible arrested oyster larval development with tetracycline-responsive plasmid; type: in vivo; conditions: 72 hours
Source text: The second Sterile Feral Construct tested for oysters, expresses the tTA under the Drosophila HSP. The tTA then drives expression of red fluorescent protein and double stranded oyster Hox via the TRE. Three separate fragments were ligated together to form this construct. The first fragment was obtained by digestion of pBiT(dHSP)-EGFP, (Seq ID NO:19), with HindIII and NheI followed by gel purification of the appropriate fragment containing the Drosophila HSP promoter. The second fragment was obtained by digesting pBiT(dHSP)-EGFP with NotI and MluI followed by gel purification of the appropriate fragment containing the TRE. The third fragment was obtained by digesting pHSP-oHoxDS/BH with MluI and. SpeI and gel purifying the appropriate fragment containing the 510 bp fragment of the zBMP2 cDNA from sequence 301-810 in the published cDNA sequence (Lee et al., 1998). The fourth fragment was obtained by firstly subcloning into pGEM3zf a KpnI/XbaI fragment containing the coding region of red fluorescent protein (RFP) that was excised from pDsRed1-N1 (Clontech, PT3405-5) vector. The resulting plasmid was then subjected to digestion with HindIII and PspOMI and the appropriate fragment containing the coding region of RFP was then gel purified from this reaction. […]

goosecoid = assay: Cotransfection of blocker plasmids with pSFM 6 (goosecoid fused to RFP) in P19-pSFM 7 cells; type: cell-based, mouse; conditions: transiently cotransfected with pSFM 6
Experimental: (§1) Fluorescent and transmitted light images were acquired using a CCD camera with a microscope. […] The luminescence assays were conducted by using a dark 96 well plate was done by Victor2 from Wallac or by Topcount NXT from Can berra Packard.
The first stage for testing blocker constructs is to set up an appropriate cell system to detect expression of reporter constructs. Initially, either pdsRED-N1 (CMV promoter RFP), pSFM 6 (CMV promoter goosecoid cDNA fused to RFP) or pSFM 24 (TRE EGFP) were transfected into P19-pSFM 7 cells to test the expression patterns of the EGFP, RFP and goosecoid-fused to RFP proteins (FIG. 37). […] In these cases, RFP expression fused to goosecid in the nucleus is expected to be inhibited in the presence of an appropriate blocker.
In order to assess various antisense and dsRNA blockers, pSFM 6 (CMV promoter goosecoid fused to RFP) was transiently cotransfected into the P19-pSFM 7 (Goosecoid promoter TET/OFF) cells along with either pSFM 5 (TRE promoter dsRNA goosecoid), pSFM 8, (CMV promoter antisense goosecoid), pSFM 9 (TRE promoter antisense goosecoid) or pSFM 24 (TRE promoter EGFP). […] There are several potential reasons for the absence of RNA blocker effects. First, antisense and dsRNA blockers may not be expressed at levels high enough to effectively interfere with the target mRNA molecules. Secondly, there may be cellular mechanisms in mammals that recognize and interfere with such constructs. Thirdly, the RNA inhibitory molecules may not be able to access and block the RNA target.

P19 cells = assay: Luciferase activity of reporter constructs transiently transfected in P19 cells; type: cell-based, mouse; conditions: for luciferase activity compared to the promoterless construct (pSFM 21) / luciferase activity, Average / luciferase activity, Fold: P19 cells; for luciferase activity compared to the promoterless construct (pSFM 21): transient; for luciferase activity, Average: transient transfection; for luciferase activity, Fold: relative to pSFM 21
Experimental: For transient transfection assays, P19 cells were cultured on gelatinized dishes in DMEM supplemented with 10% fetal bovine serum. Cells (0.3 million per well in 6-well cluster plates) were transfected with 5 μg reporter plasmid using transfection reagent ‘Geneporter’ from Gene Therapy Systems according manufacturer's recommendation.
as §1
P19 cells were transiently transfected in 6 well plates with pSFM 20 (goosecoid promoter-luciferase), pSFM 21 (promoterless luciferase) and pSFM 23 (CMV promoter-luciferase) using Gene Porter. Cells were harvested at various times post-tranfection and assayed for luciferase activity using a Promega kit (Cat. # E1501) in a Top Count NXT luminometer. […]

P19-pSFM 7 cells [1] = assay: Luciferase activity of reporter plasmids transiently transfected in P19-pSFM 7 cells; type: cell-based, mouse; conditions: for luciferase activity, Fold: relative to pSFM 21; for luciferase activity, Average: transient transfection
Source text: Reporter plasmids pSFM 20 (goosecoid promoter luciferase+), pSFM 21 (promoterless luciferase+), pSFM 23 (CMV promoter luciferase+) and pSFM 25 (TRE luciferase+) were transiently transfected into either P19 or P19-pSFM 7 (Goosecoid TET/OFF) cells to test the effectiveness of the TET-OFF genetic switch driven by goosecoid promoter.

P19-pSFM 7 cells [2] = assay: Luciferase activity of pSFM 25 in P19 clones stably integrated with pSFM 7; type: cell-based, mouse
Experimental: Stably integrated P19 clones were obtained by using BioRad Gene Pulser II electroporation system. 30 μg DNA electroporated into 10 million cells under following conditions 960 μF and 0.16 kV in a 0.4 cm cuvette (0.4 kV/cm). The next day normal media were replaced with appropriate selection media (300 μg/ml G418).
Selection of a P19 cell line stably integrated with a goosecoid-dependent TET-OFF transactivator P19 cells were electroporated with pSFM 7 (Goosecoid promoter-TET/OFF) linearised with ApaLI and selected for stable integration.
Table 20 showes the luciferase activities of pSFM 25 (TRE luciferase+) shown in counts per second (cps) of transiently transfected in P19-pSFM 7 cells.
Addition of doxycycline at 1 μg/ml reduced luciferase activity from pSFM 25 in this clone by 90 fold. This clone, containing stably integrated pSFM 7 was therefore designated P19-pSFM 7 and used for further testing.

Substance | intensity or number of cells expressing RFP in the nucleus (goosecoid) | luciferase activity (P19 cells; 24 hours post-transfection) [cps] | luciferase activity (P19 cells; 48 hours post-transfection) [cps] | luciferase activity (P19 cells; 72 hours post-transfection) [cps] | luciferase activity, Average (P19 cells) | luciferase activity, Fold (P19 cells) | luciferase activity, Fold (P19-pSFM 7 cells [1]) | luciferase activity, Average (P19-pSFM 7 cells [1]) | other results
pHSP-GUS: expresses GUS under the control of the D. melanogaster heat shock promoter (SEQ ID NO:21) | – | – | – | – | – | – | – | – | GUS activity (Pacific oyster larvae; electroporation, heat shock): 83.2 ± 5.4 fluorescence units/μg protein; GUS activity relative to controls (Pacific oyster larvae; electroporation, heat shock): 19.8; GUS activity (Pacific oyster larvae; electroporation, no heat shock): 10.5 ± 0.5 fluorescence units/μg protein; GUS activity relative to controls (Pacific oyster larvae; electroporation, no heat shock): 2.5; GUS activity (Pacific oyster larvae; no electroporation, heat shock): 4.5 ± 0.5 fluorescence units/μg protein; GUS activity relative to controls (Pacific oyster larvae; no electroporation, heat shock): 1.1; % arrested development (HoxCG1 gene; no heat shock): 6 ± 2%; % arrested development (HoxCG1 gene; with heat shock (one hour at 3 hours post fertilization)): 8 ± 3%; % arrested development (HoxCG1; No doxycycline): 5 ± 3%; % arrested development (HoxCG1; With doxycycline (5 μg/μl)): 4 ± 3%
pSFM 5: Tet-responsive expression vector pTRE-goosecoid double strand RNA | significant difference could not be detected | – | – | – | – | – | – | – | –
pSFM 8: pCMV promoter expressing goosecoid antisense RNA | significant difference could not be detected | – | – | – | – | – | – | – | –
pSFM 9: Tet-responsive expression vector pTRE-goosecoid antisense RNA | significant difference could not be detected | – | – | – | – | – | – | – | –
pSFM 20: goosecoid promoter expressing luciferase+ protein | – | 1263 | 3707 | 1692 | 610 | 5 | 6 | 365 | luciferase activity compared to the promoterless construct (pSFM 21) (P19 cells): 6 fold
pSFM 21: promoterless luciferase+ | – | 254 | 604 | 252 | 121 | 1 | 1 | 60 | –
pSFM 23: pCMV promoter expressing luciferase+ | – | 78778 | 145403 | 49936 | 44491 | 367 | 267 | 16031 | luciferase activity compared to the promoterless construct (pSFM 21) (P19 cells): 200-300 fold
pSFM 25: Tet-responsive expression vector pTRE-luciferase+ | – | – | – | – | 183 | 1.5 | 6 | 368 | luciferase activity (P19-pSFM 7 cells [2]; clone 9, with doxycycline): 54858 cps; luciferase activity (P19-pSFM 7 cells [2]; clone 9, without doxycycline): 582529 cps; luciferase activity (P19-pSFM 7 cells [2]; clone 12, with doxycycline): 4396 cps; luciferase activity (P19-pSFM 7 cells [2]; clone 12, without doxycycline): 417268 cps; luciferase activity (P19-pSFM 7 cells [2]; clone 29, with doxycycline): 48260 cps; luciferase activity (P19-pSFM 7 cells [2]; clone 29, without doxycycline): 616604 cps; luciferase activity (P19-pSFM 7 cells [2]; clone 32, with doxycycline): 19548 cps; luciferase activity (P19-pSFM 7 cells [2]; clone 32, without doxycycline): 272888 cps; luciferase activity (P19-pSFM 7 cells [2]; clone 46, with doxycycline): 8013 cps; luciferase activity (P19-pSFM 7 cells [2]; clone 46, without doxycycline): 703470 cps
